Results published in patent publication US20220015355A1, “NOVEL CARRIER FLUIDS FOR LIQUID FUNGAL SPORE FORMULATIONS” (priority 2018, published 2022).
Like-named read-outs stand apart in the source and are kept apart here. Marks after values point to notes of the source that are not given here.

Key:
[1] = system: Isaria fumosorosea spores; assay: spore viability of Isaria fumosorosea spores in carrier fluid after storage, Method 2 (flow cytometry); format: cell-based
Protocol: Method 2: 0.5 g of Isaria fumosoresea pure spore powder were transferred into an Erlenmeyer flask using a sterile spoon. 24.5 mL of fluid were dispersed using Ultra-Turrax (IKA; Type T 25 D) for 1 min at 3,000 rpm. After this, 2.0 mL were transferred in 20 sample bottles (Wheaton Serum vial, Type I) leaving little headspace and closed tight using crimpneck caps (Macherey—Nagel type N 13). Afterwards all sample bottles were transferred to an incubator set at 30° C. and stored for a given time.
In regular intervals a sample was retrieved from the storage location and analyzed for spore viability. For this purpose, the original samples were thoroughly homogenized. Aliquots of 0.5 g of each sample were transferred into 100 mL-Erlenmeyer flask. The flasks were filled up to 50 g using a sterile aqueous solution containing 0.1% Break Thru® 5240 (Evonik, Industries) and homogenized on a magnetic stirrer (Thermo Fisher Scientific: Cimarec™) at least for 15 min with 750 rpm to achieve the first dilution step (1:100 dilution). This dilution was used for further dilution.
Not all samples mixed well or mixed at all in 0.1% Break Thru 5240. For these samples, 500 μL Neo-wett (Kwizda Agro GmbH) and/or a small amount (knife tip) Metaupon®-OMT (LEUNA Tenside GmbH) were also added to the aqueous solution.
After homogenization 1 mL were transferred into a 1.5 mL tube and were centrifuged for 15 min at 14,000 rpm (Thermo Fisher Scientific, Type Megafuge 8R). The supernatant (=upper phase) was discarded by using a pipette. The tubes were filled up to 1 mL using a sterile aqueous solution containing 0.1% Neo-wett and homogenized by vortexing.
To assess fungal viability, a method based on flow cytometry was used.

[2] = system: P. lilacinum strain 251 spores; assay: spore viability (germination rate on agar) of P. lilacinum spores in carrier fluid after storage at 30° C.; format: cell-based, Purpureocillium lilacinum; details: for decline in spore viability at day 1 and after storage: fluids not within the scope of the invention
Protocol: (§1) 3 g of P. lilacinum strain 251 pure spore powder were transferred into a formulation vessel (IKA Type DT-20 mixing vessel with dispersion tool for Ultra Turrax) using a sterile spoon. 12 mL of fluid were added into the respective formulation vessel and dispersed using ultra turrax tube drive control for 1 min at 3000 rpm; change direction after 30 sec. After this 2.8 mL were transferred in four sample bottles (Wheaton Serum vial, Type I) leaving little headspace and closed tight using crimpneck caps (Macherey—Nagel type N 13) Afterwards all sample bottles were transferred to an incubator set at 30° C. and stored for a given time.
(§2) In regular intervals a sample was retrieved from the storage location and analyzed for spore viability. Therefore the original samples were thoroughly homogenized. Aliquots of 0.25 g or […] of each sample are transferred into 50 mL falcon tubes. The tubes were filled up to 25 g using a sterile aqueous solution containing 2% Tween 80 and homogenized by vortexing to achieve the first dilution step (1:100 dilution). This dilution is used for further dilution and spotting on agar.
(§3) For evaluation of spore germination rate prepare a 1:30000 dilution based on the 1:100 dilution achieved by multiple automated dilution (pipetting robot, 96 well plate). Afterwards 12×12 cm agar plates are taken and spotted with 10 times […] of each sample using an automated 12-Channel pipet. Wait until liquid is soaked up by agar and transfer agar plate to an incubator and incubate at 25° C. for 17 hours. Open the plate and place it under the microscope. Randomly choose one area per spot and record the number of germinated and non-germinated spores that are within the designated field. At least 200 spores per sample need to be evaluated. If needed count more than one field per spot.

[3] = system: Penicillium bilaii (ATCC 20851) spores; assay: spore viability (germination rate on agar) of Penicillium bilaii spores in carrier fluid after storage at 30° C.; format: cell-based
Protocol: as §1, with “1.5 g” for “3 g”, “of Penicillium bilaii (ATCC 20851)” for “of P. lilacinum strain 251”, “spoon. 13.5” for “spoon. 12”
as §2
as §3, with “1:15000” for “1:30000”, “20°” for “25°”

[4] = system: Beauveria Bassiana spores; assay: spore viability (germination rate on agar) of Beauveria bassiana spores in carrier fluid after storage at 30° C.; format: cell-based
Protocol: as §1, with “1.5 g” for “3 g”, “of Beauveria Bassiana” for “of P. lilacinum strain 251”, “spoon. 13.5” for “spoon. 12”
as §2
as §3, with “1:15000” for “1:30000”, “20°” for “25°”

[5] = system: Isaria fumosorosea spores; assay: spore viability of Isaria fumosorosea spores in carrier fluid after storage at 30° C., Method 1 (germination on agar); format: cell-based; details: Method 1
Protocol: as §1, with “Method 1: 1.5 g” for “3 g”, “of Isaria fumosorosea” for “of P. lilacinum strain 251”, “spoon. 13.5” for “spoon. 12”
as §2
For evaluation of spore germination rate a 1:15000 dilution based on the 1:100 dilution achieved by multiple automated dilution (pipetting robot, 96 well plate) was prepared. Afterwards 12×12 cm agar plates were taken and spotted with 10 times 5 μL of each sample using an automated 12-Channel pipet. After all liquid is soaked up by agar the agar plates were incubated at 23° C. for 16 hours.

[6] = P. lilacinum strain 251 in the liquid, day 1
[7] = Purpureocillium lilacinum, 35 d

Polyethylene glycol Monooleate [Alkamuls A]
spore viability [%] after 1 m (27 d) [1]: 90.7% | spore viability [%] after 2 w (~14 d) [1]: 93.0% | spore viability [%] at day 1 [1]: 94.4%

CCCCCCOCCO [Hexylcellosolve, Ethylenglycolmonohexylester, reference compound]
spore viability [%] after 3 m (87-92 d) [2]: 6.0% | spore viability [%] after 5 w (35 d) [2]: 27.4% | spore viability [%] at day 1 [2]: 79.5% | decline in spore viability at day 1 and after storage ([2]; text summary of Table I): steep decline in spore viability

2-(2-Ethoxyethoxy)ethyl acetate; Diethylene glycol monoethyl ether acetate [n-Butyldiglycolacetat]
spore viability [%] at day 1 [2, 6]: 93.2% | spore viability [%] after 3 m (87-92 d) ([2]; storage at 30° C., 87-92 d): 82.7% | spore viability [%] after 5 w (35 d) ([2]; storage at 30° C., 35 d): 89.3%

CCCCOCCO [Butylcellosolve, Ethylenglycolmonobutylether, reference compound]
decline in spore viability at day 1 and after storage ([2]; text summary of Table I): steep decline in spore viability

COCC(C)OCC(C)OC (centres unmarked) [Proglyde DMM, Dipropylene glycol dimethyl ether]
spore viability [%] 3 m@30° C. (83-85 d) ([3]; Penicillium bilaii): 10.5% | spore viability [%] 6 w@30° C. (41-43 d) ([3]; Penicillium bilaii): 29.6% | spore viability [%] initial (1-2 d) ([3]; Penicillium bilaii): 54.6% | spore viability [%] at day 1 ([4]; Beauveria bassiana, 1 d): 88.4% | spore viability [%] after 2 w (14 d) ([4]; Beauveria bassiana): 48.0% | spore viability [%] after 5 w (35 d) ([4]; Beauveria bassiana): 21.8% | spore viability [%] after 3 m (87-92 d) ([2]; Purpureocillium lilacinum): 75.4% | spore viability [%] at day 1 ([2]; Purpureocillium lilacinum, 1 d): 98.8% | spore viability [%] after 5 w (35 d) [2, 7]: 96.0%

CCCOCCO [Propylcellosolve, Ethylenglycolmonopropylether, reference compound]
spore viability [%] after 3 m (87-92 d) [2]: 0.6% | spore viability [%] after 5 w (35 d) [2]: 8.1% | spore viability [%] at day 1 [2]: 76.2% | decline in spore viability at day 1 and after storage ([2]; text summary of Table I): steep decline in spore viability

CC(=O)OCC(C)OC(C)=O (centres unmarked) [Dowanol PGDA, Propylenglycol Diacetat]
spore viability [%] 3 m@30° C. (83-85 d) ([3]; Penicillium bilaii): 36.4% | spore viability [%] 6 w@30° C. (41-43 d) ([3]; Penicillium bilaii): 69.3% | spore viability [%] initial (1-2 d) ([3]; Penicillium bilaii): 93.6% | spore viability [%] at day 1 ([1]; Isaria fumosorosea, 1 d): 97.0% | spore viability [%] after 1 m (27 d) ([1]; Isaria fumosorosea, 27 d): 53.0% | spore viability [%] at day 1 ([4]; Beauveria bassiana, 1 d): 90.6% | spore viability [%] after 3 w (21 d) ([4]; Beauveria bassiana, 21 d): 51.6% | spore viability [%] after 3 m (87-92 d) ([2]; Purpureocillium lilacinum): 88.4% | spore viability after storage for 2 or 3 months, respectively ([2]; Purpureocillium lilacinum): ≥ 80% | spore viability [%] at day 1 ([2]; Purpureocillium lilacinum, 1 d): 98.8% | spore viability [%] after 5 w (35 d) [2, 7]: 98.2%

COC(C)COC(C)COC(C)=O (centres unmarked) [Dowanol DPMA, Dipropylene glycol methyl ether acetate]
spore viability [%] at day 1 ([5]; I. fumosorosea, day 1): 87.7% | spore viability [%] after 1 m (27 d) ([5]; storage at 30° C., 27 d): 63.6% | spore viability [%] after 7 m (210 d) ([5]; storage at 30° C., 210 d): 31.4% | spore viability [%] at day 1 [2, 6]: 99.1% | spore viability [%] after 3 m (87-92 d) ([2]; storage at 30° C., 87-92 d): 35.7% | spore viability [%] after 5 w (35 d) ([2]; storage at 30° C., 35 d): 93.0%

CCOCCOCCO [Carbitol, Diethylenglycolmonoethyl ether, reference compound]
spore viability [%] after 1 m (27 d) [1]: 12.0% | spore viability [%] after 2 w (~14 d) [1]: 13.7% | spore viability [%] at day 1 [1]: 78.0%

COC(C)COC(C)CO (centres unmarked) [Dowanol DPM, Dipropylene Glycol monomethyl ether]
spore viability [%] at day 1 ([4]; Beauveria bassiana, day 1): 83.9% | spore viability [%] after 2 w (14 d) ([4]; storage at 30° C.): 61.0% | spore viability [%] after 5 w (35 d) ([4]; storage at 30° C.): 36.6% | spore viability [%] at day 1 [2, 6]: 91.0% | spore viability [%] after 2 w (12-15 d) ([2]; storage at 30° C., 12-15 d): 95.3% | spore viability [%] after 1 m (27-28 d) ([2]; storage at 30° C., 27-28 d): 93.3% | spore viability [%] after 2 m (51-55 d) ([2]; storage at 30° C., 51-55 d): 74.7%

Tween 85
spore viability [%] after 2 months [3]: 92.0$ % | spore viability [%] initial (1-2 d) [3]: 99.0% | spore viability [%] after 1 m (27 d) [1]: 98.0% | spore viability [%] after 6 months [1]: 96.1*** % | spore viability [%] at day 1 [1]: 98.9% | spore viability after storage for 7 m at 30° C. [1]: ≥ 50%

COCCOCCOCCOCCOC [Tetraglyme, Tetraethylenglycol diether]
spore viability [%] after 1 m (27-28 d) [2]: 94.8% | spore viability [%] after 2 m (51-55 d) [2]: 93.2% | spore viability [%] after 2 w (12-15 d) [2]: 97.6% | spore viability [%] after 7 m (210 d) [2]: 83.5% | spore viability [%] at day 1 [2]: 97.2% | spore viability after storage for 7 months at 30° C. (in words) ([2]; text summary of Table I): exceptional spore viability

Polyethylenglycol- 300 [Pluriol E300]
spore viability [%] after 1 m (27 d) [1]: 87.0% | spore viability [%] after 3 months [1]: 45.0* % | spore viability [%] at day 1 [1]: 96.0%

COCCOCCOCCO [Methoxytriglycol, Triethylenglycol monomethyl ether, reference compound]
spore viability [%] 3 m@30° C. (83-85 d) ([3]; Penicillium bilaii): 30.3% | spore viability [%] 6 w@30° C. (41-43 d) ([3]; Penicillium bilaii): 43.1% | spore viability [%] initial (1-2 d) ([3]; Penicillium bilaii): 74.3% | spore viability [%] at day 1 ([4]; Beauveria bassiana, 1 d): 79.7% | spore viability [%] after 2 w (14 d) ([4]; Beauveria bassiana): 12.3% | spore viability [%] after 5 w (35 d) ([4]; Beauveria bassiana): 1.5% | decline in spore viability after storage under given conditions ([4]; Table III, fluids not within the scope of the invention): steep decline in spore viability | spore viability [%] after 3 m (87-92 d) ([2]; Purpureocillium lilacinum): 19.9% | spore viability [%] at day 1 ([2]; Purpureocillium lilacinum, 1 d): 83.3% | spore viability [%] after 5 w (35 d) [2, 7]: 55.3% | decline in spore viability at day 1 and after storage ([2]; text summary of Table I): steep decline in spore viability

Tween 80
spore viability [%] after 1 m (27 d) [1]: 72.0% | spore viability [%] after 2 w (~14 d) [1]: 76.4% | spore viability [%] at day 1 [1]: 96.2%

Polyethyleneglycol-400 monolaurate [Radiasurf 7423]
spore viability [%] after 1 m (27 d) [1]: 42.3% | spore viability [%] after 2 w (~14 d) [1]: 58.0% | spore viability [%] at day 1 [1]: 86.7% | spore viability [%] after 1 m (27-28 d) [2]: 93.8% | spore viability [%] after 2 m (51-55 d) [2]: 79.7% | spore viability [%] after 2 w (12-15 d) [2]: 91.4% | spore viability [%] after 7 m (210 d) [2]: 36.9% | spore viability [%] at day 1 [2]: 90.8% | spore viability after storage for 2 or 3 months, respectively [2]: ≥ 80%

CCCCOCCOCCOCCO [Triethylenglycol monobutylether, Triethylenglycol-monobutylether]
spore viability [%] after 1 m (27-28 d) ([2]; Purpureocillium lilacinum): 57.5% | spore viability [%] after 3 m (87-92 d) ([2]; Purpureocillium lilacinum): 50.8% | spore viability [%] at day 1 ([2]; Purpureocillium lilacinum, 1 d): 77.5%
